How the values were obtained:
[1] = target: T1, human CCR3 (Homo sapiens, UniProt P51677); assay: receptor binding assay, human CCR3
T1 sequence (P51677 1-355): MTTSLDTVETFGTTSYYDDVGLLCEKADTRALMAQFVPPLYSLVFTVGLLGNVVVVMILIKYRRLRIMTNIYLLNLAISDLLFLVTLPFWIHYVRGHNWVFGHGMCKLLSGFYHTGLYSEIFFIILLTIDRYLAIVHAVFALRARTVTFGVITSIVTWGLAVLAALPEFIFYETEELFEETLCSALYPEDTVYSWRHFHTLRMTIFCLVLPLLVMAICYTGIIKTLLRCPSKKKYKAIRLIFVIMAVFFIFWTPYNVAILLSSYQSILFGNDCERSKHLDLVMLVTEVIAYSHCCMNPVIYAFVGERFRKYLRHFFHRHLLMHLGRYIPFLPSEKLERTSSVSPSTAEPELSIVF
Experimental: (§1) The antagonistic potency of the investigational product of the invention was determined in several human CCR3-dependent assays (FIG. 1). […] IC50 for a calcium influx assay using human CCR3-transfected CHEM1-Gα15 cells was determined to be 0.9±0.2 nM.

[2] = target: T1, human CCR3; assay: calcium influx assay using human CCR3-transfected CHEM1-Gα15 cells; assay type: cell-based
Experimental: as §1

[3] = target: T1, human CCR3; assay: human eotaxin-1 induced eosinophil shape change in human whole blood; assay type: cell-based; settings: read-out: IC50, antagonism of human eotaxin-1 induced eosinophil shape change
Experimental: as §1

[4] = target: T2, mouse CCR3 (Mus musculus, UniProt P51678); assay: receptor binding assay, mouse CCR3
T2 sequence (P51678 1-359): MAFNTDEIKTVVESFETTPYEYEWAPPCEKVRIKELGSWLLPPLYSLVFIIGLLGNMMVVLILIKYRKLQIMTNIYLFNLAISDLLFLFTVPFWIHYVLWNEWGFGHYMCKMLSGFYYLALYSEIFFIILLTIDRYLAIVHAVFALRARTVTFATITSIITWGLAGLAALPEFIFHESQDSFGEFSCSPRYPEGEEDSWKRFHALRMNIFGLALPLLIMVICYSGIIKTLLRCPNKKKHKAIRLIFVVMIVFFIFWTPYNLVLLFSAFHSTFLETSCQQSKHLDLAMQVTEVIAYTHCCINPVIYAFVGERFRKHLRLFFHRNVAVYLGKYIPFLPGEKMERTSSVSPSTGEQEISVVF
Experimental: (§2) Potencies for several other mammalian species were also determined in different assays. Species included cynomolgus (macaque) monkeys, mouse, rat, and canines.

[5] = target: T3, rat CCR3 (Rattus norvegicus, UniProt O54814); assay: receptor binding assay, rat CCR3
T3 sequence (O54814 1-359): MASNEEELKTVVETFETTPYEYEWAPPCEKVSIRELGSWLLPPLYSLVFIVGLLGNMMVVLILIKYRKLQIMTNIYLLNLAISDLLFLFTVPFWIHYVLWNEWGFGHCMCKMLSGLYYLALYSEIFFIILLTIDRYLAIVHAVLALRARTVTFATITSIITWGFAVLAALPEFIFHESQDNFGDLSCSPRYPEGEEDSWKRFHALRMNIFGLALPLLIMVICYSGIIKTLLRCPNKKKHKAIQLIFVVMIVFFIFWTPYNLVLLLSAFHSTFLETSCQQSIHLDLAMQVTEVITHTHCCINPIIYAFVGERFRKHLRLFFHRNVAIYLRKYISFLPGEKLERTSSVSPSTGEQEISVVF
Experimental: as §2

[6] = test system: subfoveal CNV secondary to wAMD; assay: single-arm, open-label clinical study in treatment-naïve wAMD patients, 4 week regimen; assay type: in vivo, human; settings: 400 mg orally twice daily for 4 weeks
Experimental: Patients with newly diagnosed (e.g. treatment-naïve) subfoveal CNV that was secondary to wAMD were entered into a single-arm, open-label study. Patients orally took 400 mg of the investigational drug of the invention b.o.d. (twice daily) for 4 weeks and had weekly scheduled visits with the physician. The regimen called for […]. After the end of treatment (EoT) or on withdrawal from the study medication, eligible patients could receive standard of care therapy (anti-VEGF therapy). Patients were followed up twice within 4 weeks after EoT. FIG. 2 is a depiction of the clinical trial design. Boxes V1, V2, V3, V4, and V5 indicate patient visits 1 through 5, respectively. Gaps between the boxes indicate the time in days between visits. The box labeled EoT indicates visit 6, or the end of treatment. Visits 7 and 8 occurred during the follow-up (FU) visits.
The primary endpoint was the change from baseline in central retinal thickness (CRT) as determined by spectral domain optical coherence tomography (SD-OCT) on day 29 (visit no. 6). For all primary and secondary endpoints, the value of the last assessment before first intake of study medication was used as the baseline on day 1 (visit no. 2).
CRT was reported as mean (SEM) in units of μm and time as visit number. The retinal layers and thickness was visualized and measured by SD-OCT, and to those having ordinary of skill in the art and trained using OCT equipment, visualization and measurement of the retinal layers involve well-known techniques. […]
The retinal vasculature of the study eye was evaluated via fluorescein angiography (FA). The change in neovascular leakage by FA was determined on Day 29 (visit 6) compared to baseline. […] N is the number of patients evaluated.
Visual acuity was determined using ETDRS charts over time of treatment. The absolute change in numbers of letters read by patients from their baseline levels was evaluated during visits. […]

IC50 [1]: 0.004 ± 0.0018 µM | Ki [1]: 0.0032 ± 0.0006 µM | IC50 [2]: 0.0009 ± 0.0002 µM | IC50 [3]: 0.0425 ± 0.0435 µM | IC50 [4]: 0.0873 ± 0.0056 µM | Ki [4]: 0.1243 ± 0.0009 µM | IC50 [5]: 1.72 ± 0.13 µM | Ki [5]: 1.49 ± 0.128 µM
Structure (SMILES): Cc1cc(C(=O)N(C)C)cc(NC(=O)[C@H]2CCC(=O)N2C2CCN(Cc3ccc(Cl)c(C)c3)CC2)n1 [investigational product of the invention]
change from baseline in central retinal thickness (CRT) by SD-OCT ([6]; median or mean CRT through the treatment phase): no significant change from baseline | change from baseline in neovascular leakage by fluorescein angiography ([6]; median or mean values through the treatment phase): no significant change from baseline | best corrected visual acuity (BCVA), change in letters read, ETDRS charts ([6]; subset of 8 out of 14 patients, compared to sham control and the larger patient group): significant improvement

Reference: patent US11590118B2, “Methods and compositions for treating retina-associated disease using CCR3-inhibitors” (ALKAHEST INC., priority 2017, dated 2023)
